Test results: patent US20260152480A1, “POLYCYCLIC COMPOUND AND USE THEREOF” (TYK MEDICINES , INC., priority 2022, published 2026)
pIC50: −log10 of the molar value. Read-outs that look alike come from different tables or passages of the source.

Legend:
[1] = test system: Human pleural mesothelioma cells NCI-H226; assay: Proliferation inhibition assay of human pleural mesothelioma cells NCI-H226 (CCK8); assay type: cell-based; details: 72 h, 3 days incubation
Description: Experimental Example 1 Cell Anti-Proliferation Test
Proliferation Inhibition Assay of Human Pleural Mesothelioma Cells NCI-H226 by YAP-TEAD Inhibitor Compounds
Experimental materials and equipment: Human pleural mesothelioma cells NCI-H226 were purchased from Nanjing Cobioer Biosciences CO., LTD. RPMI-1640 medium (Bio-Channel), DMSO (dimethyl sulfoxide), CCK8 (WST-8) cell analysis kit (Beyotime), 0.25% EDTA-Tripsin (trypsin solution), 1×PBS (phosphate buffer, PH7.2), 96-well plate (Corning), fetal bovine serum (FBS), 10,000 U/mL penicillin-G/streptomycin, high-speed cryo-centrifuge (EPPENDORF 5810R), enzyme-linked immunoassay (Tecan Spark).
• A) Tumor cells were cultured in RPMI-1640 (containing 10% FBS and 100 U/mL penicillin-G/streptomycin) at 37° C., 5% CO^2 and saturated humidity until 80-90% density. • B) Removed the culture medium from 10 cm Petri dishes; • C) Rinsed the cells once with 10 ml 1×PBS; • D) Added 4 ml 0.25% EDTA-Tripsin into 37° C., 5% CO^2 incubator for trypsin digestion for 5 minutes, transferred to 15 ml centrifuge tube, centrifuged at 200 g for 5 minutes, discarded the supernatant to get cell precipitate; • E) Resuspend with 4 ml DMEM medium, count and adjust to 10,000 cells/ml. • F) Added cell suspension to 96-well plate with 100 μL per well volume and incubate overnight at 37° C., 5% CO^2 incubator.
• A) Preparation of gradient dilution solution of tested compounds: the test compounds were configured into 1 mM reservoir solution. Then 1.5 μl of the reservoir solution was dissolved in 1.5 ml of DMSO-free culture solution, and then a 3-fold serial gradient dilution was performed with 0.1% DMSO culture solution for a total of 9 concentrations, and the concentrations of the compounds after dilution were as follows: • 333.33 nM, 111.11 nM, 37.03 nM, 12.35 nM, 4.15 nM, 1.37 nM, 0.46 nM, 0.15 nM • B) After thorough mixing, 100 μL of culture compound solution was taken separately to replace the culture solution in the cell culture plate, with 4 replicate wells for each concentration; • C) The cells were transferred to the incubator and incubated for 3 days.
• A) Removed the cell culture plate and added 10 μl of CCK-8 (WST-8) solution per well in the biosafety cabinet. • B) Placed the cell culture plate back into the incubator and continued incubation for 3 hours. • C) Determined the absorbance value by selecting 450 nm on a TECAN enzyme-linked immunoassay detector.
The cell viability (% Cell Viability) was calculated using the following formula.
[formula] • A (dosing): absorbance of wells with cells, CCK8 solution and drug solution • A (blank): absorbance of wells with medium and CCK8 solution but no cells • A (0 dosing): absorbance of wells with cells, CCK8 solution and no drug solution • Cell viability: Cell proliferation viability or cytotoxicity viability IC50 values were obtained by curve fitting with GraphPad Prism 8 software.

YAP-TEAD = assay: Nano luciferase method to detect YAP-TEAD inhibitor activity (293T cells transfected with pGL3B-8×GTiiC-nLuc-CMV-fLuc); assay type: cell-based; details: Homo sapiens, HEK-293T, transfected 293T cells, 48 hours incubation, read-out: Nano Luciferas detection (IC50)
Description: Experimental Example 2 Nano Luciferase Method to Detect YAP-TEAD Inhibitor Activity
(1) Experimental materials and equipment: 293T cells were purchased from Nanjing Cobioer Biosciences CO., LTD. DMEM medium (high sugar, phenol red free, Bio-Channel), DMSO (dimethyl sulfoxide), Lipo6000™ transfection reagent (Beyotime), pGL3B-8×GTiiC-nLuc-CMV-fLuc plasmid, 0.25% EDTA Tripsin (trypsin solution), 1×PBS (phosphate buffer, PH7.2), 96-well white cell culture plate (PerkinElmer), Fetal Bovine Serum (FBS), 10,000 U/mL penicillin-G/streptomycin, High-speed cryo-centrifuge (EPPENDORF 5810R), 37° C. CO^2 incubator, Vi-Cell® cell counter, Envision microplate reader (PerkinElmer).
Resuscitated 293T cells were inoculated into 10 cm petri dishes and placed in a 5% CO^2 incubator at a constant temperature of 37° C. To ensure transfection efficiency, cells in the logarithmic phase (cell density of about 50%-70%) should be used.
One day before transfection, cells in logarithmic phase were digested with Trypsin-EDTA, the reaction was terminated by adding medium, and the cell suspension was made by blowing and mixing with a pipette.
The cell concentration was determined using Vi-cell and diluted to a suspension of 5*10^5 cells per milliliter. Once the cell suspension was prepared, it was gently mixed and 10 ml of liquid was added to a 10 cm petri dish. […] The cells were incubated in a 5% CO^2 incubator at 37° C. for 1 day.
Take two clean and sterile centrifuge tubes, added 750 μL of opti-MEM Medium without antibiotics and serum respectively, then added […] of plasmid (pGL3B-8×GTiiC-nLuc-CMV-fLuc) to one of the tubes and gently blown with a pipette for mixing; the other tube was added with Lipo6000 transfection reagent and gently blown with a pipette for mixing. After standing at room temperature for 5 minutes, the culture medium containing DNA was gently added to the culture medium containing Lipo6000 transfection reagent, mixed by gently inverting the centrifuge tube, and stood at room temperature for 5 minutes.
The above mixture was added evenly dropwise to a 10-cm petri dish and replaced with fresh complete medium after 6 h of incubation.
After 1 day of transfection, Trypsin EDTA was used to digest the cells, medium was added to terminate the reaction, and a cell suspension was made by blowing and mixing with a pipette.
Cell concentration was determined using Vi-cell, and diluted to a suspension of 20,000 cells per milliliter.
After the cell suspension was prepared, it was gently mixed and 100 μL was added to each well in a 96-well plate so that the density of cells to be measured was 2000 per well.
The inoculated cell culture plates were incubated in an incubator, and the compounds in concentration gradients were added after about 24 hours.
The 10 mM compound reservoir solution was diluted to 50 μM with culture medium, and 50 μM compound solution was added sequentially to the third column of the deep-well plate, and 216 μL of culture medium containing 0.5% DMSO to the fourth to eleventh columns.
Gradient dilution: 100 μL of solution was pipetted from the third column and added to the fourth column, after mixing; another 100 μL of solution was pipetted from the fourth column and added to the fifth column, and the operation was repeated until the eleventh column.
Using a multichannel pipette, 25 μL of compound solution was pipetted from the deep-well plate and added to the 96-well culture plate, and each compound was repeated four times on the 96-well plate. A concentration gradient with a maximum concentration of 10,000 nM, 1:3.16, was eventually formed on the 96-well plate.
The 96-well plate was incubated in a 5% CO^2 incubator at a constant temperature of 37° C. for 48 hours, then removed and equilibrated at room temperature for 10 minutes.
100 μL of detection reagent was added to each well and placed on a horizontal shaker at low speed for 10 minutes to fully lyse the cells. […]

[2] = reference compounds of WO2009081259A1

Row | pIC50 [1] | pIC50 (YAP-TEAD) | pIC50 [1, 2] | pIC50 (YAP-TEAD; [2]) | SMILES
1 | ≥ 7.00 | ≥ 7.00 |  |  | C=CC(=O)N1CC=C(c2cccnc2Nc2ccc(C)cc2)C1 [Compound T14]
2 | ≥ 7.00 | ≥ 7.00 |  |  | C=CC(=O)N1CCC(c2cccnc2Nc2ccc(C)cc2)CC1 [Compound T11]
3 |  |  | < 5.30 | < 5.30 | Cc1ccc(C2CCNCC2)c(Nc2ccc(C(F)(F)F)cc2)n1 [Reference compound 2, reference compound]
4 | 6.00 to 7.00 | ≥ 7.00 |  |  | C=CC(=O)N1CCC(c2ccc(OC)nc2Nc2ccc(C(F)(F)F)cc2)CC1 [Compound T33]
5 | 6.00 to 7.00 | 6.00 to 7.00 |  |  | C=C(F)C(=O)N1CCC(c2cccnc2Nc2ccc(C(F)(F)F)cc2)CC1 [Compound T51]
6 | ≥ 7.00 | ≥ 7.00 |  |  | C=CC(=O)N1CCC(c2ccc(F)nc2Nc2ccc(C(F)(F)F)cc2)CC1 [Compound T24]
7 | 6.00 to 7.00 | 6.00 to 7.00 |  |  | C=CC(=O)N1CCC(c2cc(C)cnc2Oc2ccc(C(F)(F)F)cc2)CC1 [Compound T44]
8 | ≥ 7.00 | ≥ 7.00 |  |  | C=CC(=O)N1CCC(c2ccc(C)nc2Nc2ccc(C(F)(F)F)cc2)CC1 [Compound T21]
9 | 5.30 to 6.00 | 6.00 to 7.00 |  |  | C=CC(=O)N1CCC(c2cc(-c3ccccn3)cnc2Nc2ccc(C(F)(F)F)cc2)CC1 [Compound T95]
10 | ≥ 7.00 | ≥ 7.00 |  |  | C=CC(=O)N1CC(c2nccnc2Nc2ccc(C(F)(F)F)cc2)C1 [Compound T20]
11 |  |  | < 5.30 | < 5.30 | FC(F)(F)c1ccc(Oc2ncccc2C2CCNCC2)cc1 [Reference compound 6, reference compound]
12 | 6.00 to 7.00 | 6.00 to 7.00 |  |  | C=CC(=O)N1CCC(c2cc(OC)cnc2Nc2ccc(C(F)(F)F)cc2)CC1 [Compound T34]

Second part, the molecule before the results:

Row | SMILES | pIC50 [1] | pIC50 (YAP-TEAD) | pIC50 [1, 2] | pIC50 (YAP-TEAD; [2])
13 | C=C(F)C(=O)N1CCC(c2cccnc2Oc2ccc(C(F)(F)F)cc2)C(F)(F)C1 (centres unmarked) [Compound T81] | 6.00 to 7.00 | 6.00 to 7.00 |  | 
14 | C=CC(=O)N1CCC(c2cccnc2Nc2ccc(C(F)(F)F)cc2)C1 (centres unmarked) [Compound T3] | 6.00 to 7.00 | 6.00 to 7.00 |  | 
15 | Cc1cnc(Nc2ccc(C(F)(F)F)cc2)c(C2CCNCC2)c1 [Reference compound 1, reference compound] |  |  | < 5.30 | < 5.30
16 | FC(F)(F)c1ccc(Nc2ncc(Cl)cc2C2CCNCC2)cc1 [Reference compound 4, reference compound] |  |  | < 5.30 | < 5.30
17 | C=CC(=O)N1CC(c2cccnc2Nc2ccc(C(F)(F)F)cc2)C1 [Compound T5] | 6.00 to 7.00 | 6.00 to 7.00 |  | 
18 | C=CC(=O)N1CC(c2cccnc2Nc2ccc(S(F)(F)(F)(F)F)cc2)C1 [Compound T10] | ≥ 7.00 | ≥ 7.00 |  | 
19 | C=CC(=O)N1CCC(c2cc(F)cnc2Oc2ccc(C(F)(F)F)cc2)CC1 [Compound T38] | 6.00 to 7.00 | 6.00 to 7.00 |  | 
20 | C=CC(=O)N1CCC(c2cc(-c3ccnn3C)cnc2Nc2ccc(C(F)(F)F)cc2)CC1 [Compound T60] | 5.30 to 6.00 | 6.00 to 7.00 |  | 
21 | C=CC(=O)N1C(C)CC(c2cccnc2Oc2ccc(C(F)(F)F)cc2)CC1C (centres unmarked) [Compound T80] | ≥ 7.00 | ≥ 7.00 |  | 
22 | FC(F)(F)c1ccc(Nc2ncccc2C2CCNCC2)cc1 [Reference compound 3, reference compound] |  |  | < 5.30 | < 5.30
23 | C=CC(=O)N1CCC(c2cc3ccccc3nc2Nc2ccc(C(F)(F)F)cc2)CC1 [Compound T65] | 6.00 to 7.00 | 6.00 to 7.00 |  | 
24 | C=CC(=O)N1CCC(c2cc(-c3ccn(C)n3)cnc2Nc2ccc(C(F)(F)F)cc2)CC1 [Compound T54] | 6.00 to 7.00 | ≥ 7.00 |  | 
25 | C=CC(=O)N1CC=C(c2cccnc2Nc2ccc(C)cc2)CC1 [Compound T12] | ≥ 7.00 | ≥ 7.00 |  | 
26 | C=CC(=O)N1CC2(C1)CN(c1nccnc1Nc1ccc(C(F)(F)F)cc1)C2 [Compound T57] | ≥ 7.00 | ≥ 7.00 |  | 
27 | C=CC(=O)N1CCC(c2c(F)ccnc2Nc2ccc(C(F)(F)F)cc2)CC1 [Compound T26] | ≥ 7.00 | ≥ 7.00 |  | 
28 | C=CC(=O)N1CC=C(c2nccnc2Nc2ccc(C(F)(F)F)cc2)CC1 [Compound T17] | ≥ 7.00 | ≥ 7.00 |  | 
29 | C=CC(=O)N1CCC(c2cc(-c3cn[nH]c3)cnc2Nc2ccc(C(F)(F)F)cc2)CC1 [Compound T55] | 6.00 to 7.00 | 6.00 to 7.00 |  | 
30 | C=CC(=O)N1CCC(c2cccnc2Nc2ccc(S(F)(F)(F)(F)F)cc2)C1 (centres unmarked) [Compound T8] | ≥ 7.00 | ≥ 7.00 |  | 
31 | C=CC(=O)N1CCC(c2c(OC)ccnc2Nc2ccc(C(F)(F)F)cc2)CC1 [Compound T35] | 6.00 to 7.00 | 6.00 to 7.00 |  | 
32 | C=CC(=O)N1CCC(c2cc(OC)cnc2Oc2ccc(C(F)(F)F)cc2)CC1 [Compound T73] | 6.00 to 7.00 | 6.00 to 7.00 |  | 
33 | FC(F)(F)c1ccc(Oc2ncc(Cl)cc2C2CCNCC2)cc1 [Reference compound 7, reference compound] |  |  | < 5.30 | < 5.30
34 | C=CC(=O)N1CC=C(c2nccnc2Nc2ccc(C(F)(F)F)cc2)C1 [Compound T19] | ≥ 7.00 | ≥ 7.00 |  | 
35 | C=CC(=O)N1CCC(c2ccnnc2Nc2ccc(C(F)(F)F)cc2)CC1 [Compound T42] | 6.00 to 7.00 | 6.00 to 7.00 |  | 
36 | C=CC(=O)N1CCC(c2nc(C(F)(F)F)cnc2Nc2ccc(C(F)(F)F)cc2)CC1 [Compound T83] | ≥ 7.00 | ≥ 7.00 |  | 
37 | C=CC(=O)N1CCC(c2cccnc2N(C)c2ccc(C(F)(F)F)cc2)CC1 [Compound T63] | 6.00 to 7.00 | 6.00 to 7.00 |  | 
